# Measured values published in patent US20220031901A1, “FRAGRANCE COMPOSITION” (Takasago International Corporation, priority 2020, published 2022).
# Experiments:
# [1] = target: T1, olfactory receptor OR2L3 (Homo sapiens, UniProt Q8NG85); experiment: Effect of suppressing the response of OR2L3 to unpleasant odor (luciferase reporter gene assay); assay type: cell-based; conditions: for Effect of suppressing the response of OR2L3 to skatole: test substance mixed with skatole, ratio of Fold Increase value, FIGS. 6 to 8; for Effect of suppressing the response of OR2L3 to indole: test substance mixed with indole, FIGS. 9 to 11
# T1 construct: N-terminal 20 amino acid residues of bovine rhodopsin (Rho tag); expressed in transfected cells; host or cells: HEK293T
# T1 sequence (Q8NG85 1-312): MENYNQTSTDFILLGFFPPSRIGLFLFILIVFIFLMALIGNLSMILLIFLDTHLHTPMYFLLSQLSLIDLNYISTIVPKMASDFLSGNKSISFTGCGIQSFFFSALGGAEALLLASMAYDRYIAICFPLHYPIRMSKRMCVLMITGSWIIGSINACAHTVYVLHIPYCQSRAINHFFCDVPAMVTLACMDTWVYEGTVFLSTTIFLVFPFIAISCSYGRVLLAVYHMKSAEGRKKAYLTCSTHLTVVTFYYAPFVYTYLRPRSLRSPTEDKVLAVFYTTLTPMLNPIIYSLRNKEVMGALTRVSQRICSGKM
# Protocol: (§1) A human olfactory receptor gene was obtained by cloning according to the PCR method using Human Genomic DNA: Female (Promega) based on the sequence information registered in GenBank. The N-terminal 20 amino acid residues of bovine rhodopsin were incorporated into a pME18S vector, and the obtained human olfactory receptor gene was further incorporated downstream thereof, thereby obtaining a human olfactory receptor gene expression vector.
# (§2) 0.05 μg of the human olfactory receptor gene expression vector, 0.01 μg of an RTP1S vector, 0.01 μg of a firefly luciferase vector pGL4.29 containing a cAMP-responsive sequence promoter (Promega), and 0.005 μg of a Renilla luciferase vector pGL4.74 containing a thymidine kinase promoter (Promega) were dissolved in 10 μL of Opti-MEM I (gibco) to obtain a gene solution (for one well). 100 μL of HEK293T cells were seeded in each well of a 96-well plate (Biocoat manufactured by Corning) so as to reach confluency after 24 hours. According to the directions for use of Lipofectamine 3000, by the lipofection method, the gene solution was added to each well to perform gene transfer to cells, and culturing was performed under 5% carbon dioxide atmosphere at 37° C. for 24 hours.
# (§3) After removing the culture medium, 50 μL of CD293 medium (gibco) (20 μM L-glutamine added) including measured concentration of an aroma compound as a sample was added to each well, and stimulation was performed for 3 hours. After that, the luciferase activity was measured according to the directions for use of Dual-Luciferase Reporter Assay System (Promega). The response strength of the olfactory receptor was expressed by the Fold Increase value, which is obtained by dividing the luciferase activity generated by stimulation of the aroma compound by the luciferase activity generated in the test system not including the aroma compound.
# With respect to Group A, the effect of suppressing the response of OR2L3 that strongly responded to unpleasant odors was measured by means of luciferase reporter gene assay. In luciferase reporter gene assay, skatole and Guava coeur (registered trademark) were used by being mixed with a sample. The Fold Increase value in the test in which Guava coeur was not mixed was regarded as 1, and the ratio of the Fold Increase value in the test in which Guava coeur was mixed was obtained.
# Guava coeur in the evaluation of the effect of suppressing the response of OR2L3 was replaced by Dextramber (registered trademark), and the test was conducted in the same manner. […] Similarly, Guava coeur was replaced by Hindinol (registered trademark) and the test was conducted.
# Regarding the unpleasant odor in the evaluation of the effect of suppressing the response of OR2L3, skatole was replaced by indole, and the test was conducted in the same manner.
# In the evaluation of the effect of suppressing the response of OR2L3, the test was further conducted using combinations in which Guava coeur was replaced by another material of Group A and the skatole as the unpleasant odor was replaced by α-terpineol, 4-terpineol or p-methylacetophenone.
# [2] = Sensory evaluation of unpleasant odor suppression ability of Group A; design: species or system human; conditions: for Indole strength / Skatole strength: average of 20 panelists, scale 0 (not smelled) to 10 (very strongly), unpleasant odor alone = 8, 1 hour; for Indole strength: 10 μL indole diluted 100-fold + 1 μL test substance; for Skatole strength: 10 μL skatole diluted 100-fold + 1 μL test substance; for Effect of suppressing the unpleasant odors (skatole, indole): sensory evaluation, result in words
# Protocol: The unpleasant odor suppression ability of test substances having activity to inhibit receptor action was confirmed by sensory evaluation. A cotton ball on which 10 μL of skatole or indole diluted 100-fold with triethyl citrate as an unpleasant odor and 1 μL of a test substance were dropped was put into a plastic bottle (OZO-40 manufactured by Takemoto Yohki Co., Ltd.). The bottle was allowed to stand at room temperature for 1 hour to sufficiently volatilize odor molecules therein. The sensory evaluation test was conducted by a panel consisting of 20 persons, who made evaluation as follows: the odor strength in the case where the unpleasant odor was dropped solely was rated as 8, and the unpleasant odor strength in the case where the test substance was mixed was rated as from 0 (the unpleasant odor is not smelled) to 10 (the unpleasant odor is smelled very strongly). The average value was calculated from obtained numerical values.
# [3] = Sensory evaluation of ability to suppress model fecal odor by fragrance compositions; design: species or system human; conditions: substance blended in the fragrance composition (floral-fruity base); result in words
# Protocol: Fragrance compositions of Fragrance 1 to Fragrance 41 were prepared according to the formulations in Tables 2-6 below. DPG in the tables means dipropylene glycol. […] Note that the way of dividing the group and the ratio in the group are optional and not limited by Table 7. The floral-fruity base in Tables 2-6 was prepared according to Table 8.
# Regarding these fragrance compositions, the ability to suppress the unpleasant odor was confirmed by means of sensory evaluation. As the unpleasant odor, a model fecal odor containing skatole, indole, butyric acid, p-cresol and dimethyl trisulfide (Lin et al., Environ. Sci. Technol., 2013, 47(14), pp. 7876-7882) was diluted 100-fold, and 10 μL thereof was dropped on a cotton ball, and as a test substance, 1 μL of one of Fragrance 1 to Fragrance 41 was dropped on the cotton ball. Then the cotton ball was put into a plastic bottle (OZO-40 manufactured by Takemoto Yohki Co., Ltd.). The bottle was allowed to stand at room temperature for 1 hour to sufficiently volatilize odor molecules therein. The sensory evaluation test was conducted by a panel consisting of 20 persons, who made evaluation as follows: the unpleasantness in the case where the unpleasant odor was dropped solely was rated as −3, and the unpleasantness in the case where the test substance was mixed was rated as from −4 (extremely unpleasant) to +4 (extremely pleasant). The average value was calculated from obtained numerical values.
# [4] = target: T1, olfactory receptor OR2L3; experiment: Response of olfactory receptor OR2L3 to unpleasant odor-causing substance (luciferase reporter gene assay); assay type: cell-based; conditions: various concentrations, stimulation 3 hours, HEK293T cells expressing OR2L3; FIGS. 1 to 5
# Protocol: as §1, §2, §3
# Responses of the olfactory receptor OR2L3 to skatole, indole, α-terpineol, 4-terpineol or p-methylacetophenone as a typical example of the unpleasant odor-causing substance were measured with various concentrations by means of luciferase reporter gene assay. […] Meanwhile, in the Mock test (using cells in which OR2L3 was not expressed), no response was shown. That is, it was shown that OR2L3 specifically responds to the respective unpleasant odor-causing substances.
Response of the olfactory receptor OR2L3 (Fold Increase value) [4],Molecule,Effect of suppressing the response of OR2L3 to skatole [1],Indole strength [2],Skatole strength [2],Suppression of the unpleasantness of the model fecal odor [3],"Effect of suppressing the unpleasant odors (skatole, indole) [2]",Effect of suppressing the response of OR2L3 to indole [1]
,"CC(C)(C)C1CCC(O)CC1 (stereo not shown) [4-t-butylcyclohexanol, reference compound]",did not suppress,6.0,6.3,,,
,"O=C1CCCC=CCCCCCCCCCC1 [Ambretone, 5-cyclohexadecenone]",,3.6,4.2,suppress the unpleasantness,suppress the unpleasant odors,
,"CCCC(O)CCC1C(C)CCCC1(C)C (stereo not shown) [Dextramber, 1-(2,2,6-trimethylcyclohexyl)hexan-3-ol]",concentration-dependently reducing the response,3.9,4.0,suppress the unpleasantness,suppress the unpleasant odors,concentration-dependently reducing the response
concentration-dependent responses,"CC1=CCC(O)(C(C)C)CC1 (stereo not shown) [Fragrance 4-terpineol, 4-terpineol]",,,,,,
,"CCOC(=O)C(C)C(C)S (stereo not shown) [Guava coeur, ethyl 3-mercapto-2-methylbutyrate]",concentration-dependently reducing the response,3.3,3.0,suppress the unpleasantness,suppress the unpleasant odors,concentration-dependently reducing the response
,"CCCCCCOC(=O)c1ccccc1O [Hexyl salicylate, hexyl salicylate, reference compound]",did not suppress,6.7,6.9,,,
,"CC(=CCC1CC=C(C)C1(C)C)CO (stereo not shown) [Hindinol, 2-methyl-4-(2,2,3-trimethyl-3-cyclopentenyl)-2-buten-1-ol]",concentration-dependently reducing the response,4.1,3.6,suppress the unpleasantness,suppress the unpleasant odors,concentration-dependently reducing the response
,"CC(c1ccccc1)C1CC1C(C)(C)O (stereo not shown) [Pamplefix, dimethyl-2-(1-phenylethyl)cyclopropylmethanol]",,2.4,2.5,suppress the unpleasantness,suppress the unpleasant odors,
,"CC1CCC(C(C)(C)S)C(=O)C1 (stereo not shown) [Ringonol, p-mentha-8-thiol-3-one]",,3.7,3.9,suppress the unpleasantness,suppress the unpleasant odors,
concentration-dependent responses,CC(=O)c1ccc(C)cc1 [p-methylacetophenone],,,,,,
concentration-dependent responses,Cc1c[nH]c2ccccc12 [skatole],,,,,,
concentration-dependent responses,CC1=CCC(C(C)(C)O)CC1 (stereo not drawn) [α-terpineol],,,,,,
,methyl fenchol [Humus Ether],suppresses,,,suppressed the unpleasantness,,

Molecule,Response of the olfactory receptor OR2L3 (Fold Increase value) [4],Effect of suppressing the response of OR2L3 to skatole [1],Indole strength [2],Skatole strength [2],Suppression of the unpleasantness of the model fecal odor [3],"Effect of suppressing the unpleasant odors (skatole, indole) [2]",Effect of suppressing the response of OR2L3 to indole [1]
c1ccc2[nH]ccc2c1 [indole],concentration-dependent responses,,,,,,
